Results: patent publication US20230338391A1, “TREATMENT FOR DEPRESSION” (TAKEDA PHARMACEUTICAL COMPANY LIMITED, priority 2020, published 2023)

Legend:
[1] = in vivo; parameters: species or system Sprague-Dawley rats; conditions: both sexes, Sprague-Dawley, rat, po
Description: (§1) An appropriate amount of methylcellulose (MC) was weighed and mixed with a small amount of warm water for injection. The mixture was then diluted with water for injection to make a 0.5% (w/v) MC solution. The vehicle was used for dosing in the control group. To make a 40 mg/mL suspension of COMPOUND A, an appropriate amount of the test article was weighed and mixed with the vehicle using a planetary centrifugal mixer and the mixture was then diluted with additional vehicle. The 40 mg/mL suspension was used to make 20 and 10 mg/mL suspensions by stepwise dilutions with the vehicle. The dosing suspensions were stored in a refrigerator (actual values: 3.7° C. to 6.1° C., acceptable range: 2° C. to 8° C.) under light-resistant conditions (tight container) and used within 8 days after preparation.
(§2) Males and females in good condition were selected for this study based on examinations within 4 days before the first dosing. Based on their body weights, animals were stratified and allocated randomly to 3 main study groups, each composed of 18 males and 18 females, and 2 satellite groups each composed of 9 males and 9 females for determination of plasma drug and metabolite concentrations. Surplus animals after animal selection were excluded from the study on the day after the animal selection or the day dosing commenced (Day 1).
(§3) The behavior of the high-dose main study and TK satellite groups was video-recorded continuously throughout the dosing period (until the morning on the day of necropsy) under non-GLP conditions. The video-recorded images were kept on a hard drive and were archived as study data. […]
(§4) Each animal was weighed pre-dose using electronic balances (PB3002-S; Mettler-Toledo K.K. and UX4200H; Shimadzu Corporation) on Days 1, 2, 4, 7, 11, and 14 during the dosing period. Body weights were also measured for all animals on the day of necropsy on Days 3, 8, and 15, and these terminal body weight values were also used for calculation of the amount of anesthesia. […]

[2] = test system: Sprague-Dawley rats; test: in vivo; conditions: female, rat, 200 mg/kg/day, 14 days
Description: as §1, §2, §3, §4

[3] = 13-week NHP GLP toxicity study: toxicokinetics; assay type: in vivo, Monkey (Macaca fascicularis); conditions: cynomolgus monkey, plasma, oral; range across all TK sampling days (1st, 29th, 90th dosing)
Description: Blood samples (a target of 0.5 mL each, Na-heparin tubes) were collected from all animals at the following timepoints: • Phase 1: at 4 hours after dosing. • Phase 2: Plasma concentrations of COMPOUND A and its metabolites were determined for all dose groups after the 1st, the 29th dosing and the 90th dosing. Blood collection occurred in each animal in all groups before dosing (at the 29th and 90th dose only) and 1, 2, 4, 8, and 24 hours after dosing. Blood samples were collected into Na-heparin tubes via the implanted catheter or from the jugular, cephalic or femoral vein by venipuncture; tubes were kept on wet ice pending centrifugation. The blood samples were centrifuged at 5400×g for 5 minutes under cooling conditions (set to 4° C.) to obtain the plasma. The plasma was divided into duplicate samples (at least 100 μL each) and was kept on dry ice and stored in a freezer set to −20° C. until shipment. Back-up samples (set 2 of 2) were stored separately from set 1 of 2.
Non-compartmental toxicokinetic analysis was performed by the subcontractor on the plasma concentration data for COMPOUND A, and its metabolites using validated WinNonlin software. The TK parameters (tmax, Cmax, t1/2, MRT24, MRTinf, AUC24 and AUCinf) were calculated for all animals except for the control animals.

[4] = test system: MEPs; test: Nonclinical MEP amplitude in rats; assay type: in vivo; conditions: nonclinical data

CC1=CN2CCS(=O)(=O)N=C2C(c2ccc(OC3CCCCC3)cc2)=N1 [COMPOUND A, 9-[4-(Cyclohexyloxy)phenyl]-7-methyl-3,4-dihydropyrazino[2,1-c][1,2,4]thiadiazine 2,2-dioxide]
NOAEL at 14 days [1]: 100 mg/kg/day
cerebellar Purkinje cell histopathology (HE, Fluoro-Jade) [2]: necrosis and/or Fluoro-Jade positive staining of Purkinje cells (dendrites, cell bodies, or axons) in 3 rats
tonic convulsions (video recordings) [2]: tonic convulsions in 2 rats
Tmax [3]: 2 to 15 h
amplitude of MEPs [4]: increases the amplitude of MEPs in rats
